In ChEMBL document CHEMBL1201862, “PubChem BioAssay data set” (2004):
Calls of active or inactive are those of the source.

Legend:
[1] = biological target: Albumin (Bos taurus, UniProt P02769); assay: Counterscreen for inhibitors of T-cell receptor (TCR)-CD3 interaction: Fluorescence-based biochemical high throughput dose response assay to identify inhibitors of T-cell receptor (TCR)-CD3 interaction using a TAMRA-labeled BSA probe.; type: functional
[2] = half-maximal inhibitory concentration for glucagon-like peptide-1 release, STC-1 cell line, dose-response (AID 1117345); type: functional, cell-based
[3] = Glucagon-like peptide 1 release potency, NCI-H716 cell line, dose-response, half-maximal inhibitory concentration (AID 1117344); type: functional, cell-based
[4] = biological target: T1, Trace amine-associated receptor 1 (Homo sapiens, UniProt Q96RJ0); assay: Fluorescence-based cell-based high throughput dose response assay to identify agonists of the human trace amine associated receptor 1 (TAAR1).; type: functional
T1 sequence (Q96RJ0 whole entry): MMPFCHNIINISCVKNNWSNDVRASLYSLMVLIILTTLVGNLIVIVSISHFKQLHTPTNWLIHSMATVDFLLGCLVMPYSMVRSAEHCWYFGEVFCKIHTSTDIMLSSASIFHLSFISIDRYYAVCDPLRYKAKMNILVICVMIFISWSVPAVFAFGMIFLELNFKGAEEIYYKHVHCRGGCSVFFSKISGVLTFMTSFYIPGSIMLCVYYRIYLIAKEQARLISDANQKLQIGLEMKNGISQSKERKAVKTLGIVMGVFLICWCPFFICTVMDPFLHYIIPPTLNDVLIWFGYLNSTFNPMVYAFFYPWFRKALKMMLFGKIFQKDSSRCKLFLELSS

[5] = biological target: T1, Trace amine-associated receptor 1; assay: Counterscreen for agonists of the human trace amine associated receptor 1 (hTAAR1): Fluorescence-based cell-based high throughput dose response assay to identify hTAAR1 agonist that also desensitize TAAR1 receptor response.; type: functional
[6] = cells; type: functional, cell-based
[7] = cells; type: functional, cell-based; remark: listed apart in the source
[8] = biological target: Tyrosyl-DNA phosphodiesterase 2 (Homo sapiens, UniProt O95551); assay: human TDP2 enzyme inhibitors, dose response, biochemical, epi absorbance, IC50 (AID 743297)
[9] = inhibitors of Vif binding to APOBEC3G peptide, primary screen, biochemical, TR-FRET, GST-Vif 1-94, biotin-A3G peptide, dose response retest (AID 1117319); type: functional;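 further: TR-FRET signal of purified GST-Vif binding a biotinylated A3G peptide; inhibitors lower the FRET signal by blocking Vif and A3G binding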
[10] = CellTiter-Glo luminescent dose response of DLD-1 viability loss (AID 1117352); type: functional
[11] = RKO cell viability reduction, dose response, CellTiter-Glo luminescence (AID 1117322); type: functional
[12] = cytotoxicity toward HT-29 cells – cell-based, CellTiter-Glo luminescence, IC50, dose response (AID 1117330); type: functional
[13] = Concentration-dependent survival of SW480 colon cancer line, luminescence detection with CellTiter-Glo, half-maximal inhibitory concentration (AID 1117338); type: functional
[14] = cytotoxicity toward Colo320 cells – cell-based, CellTiter-Glo luminescence, IC50, dose response (AID 1117334); type: functional; conditions: COLO 320
[15] = HeLa 4N DNA content increase, dose response, cell-based, IC50 (AID 1117351); type: functional
[16] = SNU-C1 cell viability reduction, dose response, CellTiter-Glo luminescence (AID 1117323); type: functional, cell-based
[17] = HCT116 cell viability decrease, GSK3B pretreatment – CellTiter-Glo, IC50, dose response (AID 1117339); type: functional; conditions: HCT-116
[18] = cytotoxicity toward HCT116 cells – cell-based, CellTiter-Glo luminescence, IC50, dose response (AID 1117332); type: functional; conditions: HCT-116
[19] = HeLa 2N DNA content increase, dose response, cell-based, IC50 (AID 1117349); type: functional
[20] = biological target: T2, Zinc finger protein mex-5 (Caenorhabditis elegans, UniProt Q9XUB2); assay: MEX-5/TCR-2 RNA interaction inhibitors, dose response, biochemical, C. elegans, fluorescence polarization (AID 1960)
T2 sequence (Q9XUB2 whole entry): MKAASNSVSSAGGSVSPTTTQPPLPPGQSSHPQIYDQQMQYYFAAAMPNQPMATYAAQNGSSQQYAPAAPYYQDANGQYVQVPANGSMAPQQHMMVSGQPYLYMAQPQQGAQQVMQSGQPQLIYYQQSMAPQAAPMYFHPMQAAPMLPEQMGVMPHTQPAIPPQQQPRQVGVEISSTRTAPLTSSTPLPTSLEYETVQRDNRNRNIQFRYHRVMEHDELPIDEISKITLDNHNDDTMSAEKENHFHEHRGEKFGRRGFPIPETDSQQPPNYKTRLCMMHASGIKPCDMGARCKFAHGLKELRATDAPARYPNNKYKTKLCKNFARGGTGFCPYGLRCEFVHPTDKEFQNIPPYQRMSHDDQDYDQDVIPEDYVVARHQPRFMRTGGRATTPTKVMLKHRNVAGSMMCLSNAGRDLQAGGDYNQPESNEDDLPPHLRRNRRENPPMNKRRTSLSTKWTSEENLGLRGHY

[21] = biological target: T3, RNA-binding protein pos-1 (Caenorhabditis elegans, UniProt G5EF15); assay: inhibitors of POS-1/mex-3 RNA binding, dose response, biochemical, fluorescence polarization (AID 1964);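 further: purified POS-1 fused to maltose binding protein made in E. coli; potency of compounds blocking POS-1 binding to fluorescent RNA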
T3 sequence (G5EF15 whole entry): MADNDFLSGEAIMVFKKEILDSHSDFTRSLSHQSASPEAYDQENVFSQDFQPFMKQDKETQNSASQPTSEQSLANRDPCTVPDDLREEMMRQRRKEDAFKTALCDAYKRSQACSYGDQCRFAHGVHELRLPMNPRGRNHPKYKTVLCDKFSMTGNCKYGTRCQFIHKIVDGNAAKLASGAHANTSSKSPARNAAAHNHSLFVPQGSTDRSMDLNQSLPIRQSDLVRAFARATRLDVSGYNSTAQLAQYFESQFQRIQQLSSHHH

[22] = tested on: HeLa; assay: HeLa cell cytotoxicity, dose response, cytotoxicity control, ATP luminescence, cherry-pick samples (AID 687004); type: functional, cell-based
[23] = biological target: Beta-galactosidase (Escherichia coli, UniProt Q8VNN2); assay: PubChem AID 485352; type: functional
[24] = biological target: T4, Type-1 angiotensin II receptor (Homo sapiens, UniProt P30556); assay: AT1 receptor antagonists, dose response, selectivity assay for APJ receptor antagonist project, cell-based, uHTS hits (AID 463214); type: functional;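 further: antagonist potency against angiotensin II stimulated AT1 response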
T4 sequence (P30556 whole entry): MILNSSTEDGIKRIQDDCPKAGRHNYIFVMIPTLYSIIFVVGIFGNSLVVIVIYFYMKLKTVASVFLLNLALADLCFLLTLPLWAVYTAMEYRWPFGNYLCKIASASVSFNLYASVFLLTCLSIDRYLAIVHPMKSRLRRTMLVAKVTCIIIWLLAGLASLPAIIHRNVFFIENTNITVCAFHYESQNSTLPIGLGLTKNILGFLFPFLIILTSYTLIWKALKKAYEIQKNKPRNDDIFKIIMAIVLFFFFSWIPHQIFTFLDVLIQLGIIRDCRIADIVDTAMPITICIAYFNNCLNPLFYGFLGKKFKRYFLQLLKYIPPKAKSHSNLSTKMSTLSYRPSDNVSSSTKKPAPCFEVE

[25] = biological target: T5, Oxysterols receptor LXR-beta (Homo sapiens, UniProt P55055); type: functional, cell-based;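 further: Cell-based luminescence dose-response assay of agonist activity at LXR, run as a confirmatory counterscreen to a daf-12 agonist screen; HEK293 cells with Gal4-LXR fusion and GAL4-driven luciferase reporter; agonist potency from rising luciferase signal of a Gal4-LXR reporter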
T5 sequence (P55055 whole entry): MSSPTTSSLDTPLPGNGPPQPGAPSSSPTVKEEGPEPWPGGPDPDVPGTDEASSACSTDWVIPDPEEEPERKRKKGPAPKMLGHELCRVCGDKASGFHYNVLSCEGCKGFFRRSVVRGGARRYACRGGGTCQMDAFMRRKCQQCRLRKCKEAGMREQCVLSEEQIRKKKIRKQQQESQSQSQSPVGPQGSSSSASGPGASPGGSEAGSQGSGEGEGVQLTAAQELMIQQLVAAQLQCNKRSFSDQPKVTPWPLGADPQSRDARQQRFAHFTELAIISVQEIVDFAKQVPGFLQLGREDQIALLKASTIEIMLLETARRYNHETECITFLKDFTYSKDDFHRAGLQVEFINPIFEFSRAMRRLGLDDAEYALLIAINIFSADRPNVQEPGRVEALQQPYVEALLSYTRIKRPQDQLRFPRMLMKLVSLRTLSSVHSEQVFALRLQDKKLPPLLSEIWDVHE

[26] = cells
[27] = A549 cell cytotoxicity, dose response, cytotoxicity control, plate reader, cherry-pick, antagonist series (AID 743412); type: functional, cell-based
[28] = MC4R antagonists, dose response, counter-screen for LGR2 antagonist project, cell-based, plate reader, cherry pick (AID 743444); type: functional;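 further: transfected HEK 293 cells stimulated with alpha-MSH peptide; potency of inhibitors of the alpha-MSH evoked signal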
[29] = HepG2 cell cytotoxicity, dose response, cytotoxicity control, plate reader, cherry-pick, antagonist series (AID 743416); type: functional, cell-based
[30] = LGR2 antagonists, dose response, cell-based, HEK293, CRE-luciferase reporter, cherry pick, set 2 (AID 743343); type: functional;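 further: transfected cells were stimulated with diluted bursicon conditioned medium after compound addition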
[31] = biological target: T6, Acyl-homoserine lactone acylase PvdQ (Pseudomonas aeruginosa (strain LESB58), UniProt Q9I194); assay: P. aeruginosa PvdQ acylase inhibitors, dose response, biochemical, fluorescence, plate reader and imaging, cherry-picks (AID 493231)
T6 sequence (Q9I194 whole entry): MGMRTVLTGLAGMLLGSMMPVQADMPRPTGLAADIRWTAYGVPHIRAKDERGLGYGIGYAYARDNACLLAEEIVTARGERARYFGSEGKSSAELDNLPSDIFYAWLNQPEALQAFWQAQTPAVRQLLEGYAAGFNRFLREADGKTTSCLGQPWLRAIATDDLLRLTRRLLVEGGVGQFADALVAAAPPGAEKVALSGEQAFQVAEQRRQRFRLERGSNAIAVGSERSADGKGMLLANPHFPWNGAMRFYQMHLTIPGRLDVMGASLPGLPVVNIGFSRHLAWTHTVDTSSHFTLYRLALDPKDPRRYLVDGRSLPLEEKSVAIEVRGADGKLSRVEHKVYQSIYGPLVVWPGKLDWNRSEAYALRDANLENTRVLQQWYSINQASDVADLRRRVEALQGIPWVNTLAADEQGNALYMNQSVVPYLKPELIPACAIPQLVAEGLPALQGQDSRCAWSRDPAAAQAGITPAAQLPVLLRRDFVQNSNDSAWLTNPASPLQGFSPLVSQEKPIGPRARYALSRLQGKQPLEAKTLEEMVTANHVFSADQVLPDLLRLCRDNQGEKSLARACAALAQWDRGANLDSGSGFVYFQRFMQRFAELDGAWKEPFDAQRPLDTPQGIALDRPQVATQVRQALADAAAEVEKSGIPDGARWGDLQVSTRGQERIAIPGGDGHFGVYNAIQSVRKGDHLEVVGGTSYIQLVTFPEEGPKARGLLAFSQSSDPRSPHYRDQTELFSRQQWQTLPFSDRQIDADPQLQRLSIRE

[32] = HEK293 cell cytotoxicity, dose response, cytotoxicity control, plate reader, cherry-picked samples (AID 743446); type: functional, cell-based

Chain of Tyrosyl-DNA phosphodiesterase 2 (O95551 whole entry): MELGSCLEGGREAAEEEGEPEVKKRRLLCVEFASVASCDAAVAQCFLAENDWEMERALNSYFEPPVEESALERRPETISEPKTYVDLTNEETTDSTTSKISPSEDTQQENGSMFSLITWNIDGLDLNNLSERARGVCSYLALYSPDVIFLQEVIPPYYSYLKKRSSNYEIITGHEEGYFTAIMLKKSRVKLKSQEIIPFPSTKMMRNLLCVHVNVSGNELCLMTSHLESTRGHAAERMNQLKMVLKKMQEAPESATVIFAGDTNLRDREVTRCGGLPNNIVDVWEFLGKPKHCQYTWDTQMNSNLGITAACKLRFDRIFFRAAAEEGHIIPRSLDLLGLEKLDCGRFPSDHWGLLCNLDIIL
Chain of Albumin (P02769 whole entry): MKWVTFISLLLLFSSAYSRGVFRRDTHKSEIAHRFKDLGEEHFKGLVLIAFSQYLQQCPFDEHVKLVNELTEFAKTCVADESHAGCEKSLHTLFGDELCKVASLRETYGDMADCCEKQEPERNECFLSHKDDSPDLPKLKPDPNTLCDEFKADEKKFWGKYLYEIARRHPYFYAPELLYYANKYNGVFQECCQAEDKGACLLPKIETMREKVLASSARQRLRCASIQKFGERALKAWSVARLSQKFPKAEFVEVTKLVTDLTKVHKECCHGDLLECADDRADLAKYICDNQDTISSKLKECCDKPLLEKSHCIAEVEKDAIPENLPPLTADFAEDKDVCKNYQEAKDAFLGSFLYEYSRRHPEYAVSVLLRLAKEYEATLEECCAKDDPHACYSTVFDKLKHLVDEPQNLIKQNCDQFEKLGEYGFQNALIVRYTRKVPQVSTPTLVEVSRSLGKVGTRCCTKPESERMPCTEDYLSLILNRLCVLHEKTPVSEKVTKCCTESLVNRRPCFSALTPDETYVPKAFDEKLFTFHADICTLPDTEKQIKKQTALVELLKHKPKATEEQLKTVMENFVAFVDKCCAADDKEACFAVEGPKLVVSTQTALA
Chain of Beta-galactosidase (Q8VNN2 whole entry): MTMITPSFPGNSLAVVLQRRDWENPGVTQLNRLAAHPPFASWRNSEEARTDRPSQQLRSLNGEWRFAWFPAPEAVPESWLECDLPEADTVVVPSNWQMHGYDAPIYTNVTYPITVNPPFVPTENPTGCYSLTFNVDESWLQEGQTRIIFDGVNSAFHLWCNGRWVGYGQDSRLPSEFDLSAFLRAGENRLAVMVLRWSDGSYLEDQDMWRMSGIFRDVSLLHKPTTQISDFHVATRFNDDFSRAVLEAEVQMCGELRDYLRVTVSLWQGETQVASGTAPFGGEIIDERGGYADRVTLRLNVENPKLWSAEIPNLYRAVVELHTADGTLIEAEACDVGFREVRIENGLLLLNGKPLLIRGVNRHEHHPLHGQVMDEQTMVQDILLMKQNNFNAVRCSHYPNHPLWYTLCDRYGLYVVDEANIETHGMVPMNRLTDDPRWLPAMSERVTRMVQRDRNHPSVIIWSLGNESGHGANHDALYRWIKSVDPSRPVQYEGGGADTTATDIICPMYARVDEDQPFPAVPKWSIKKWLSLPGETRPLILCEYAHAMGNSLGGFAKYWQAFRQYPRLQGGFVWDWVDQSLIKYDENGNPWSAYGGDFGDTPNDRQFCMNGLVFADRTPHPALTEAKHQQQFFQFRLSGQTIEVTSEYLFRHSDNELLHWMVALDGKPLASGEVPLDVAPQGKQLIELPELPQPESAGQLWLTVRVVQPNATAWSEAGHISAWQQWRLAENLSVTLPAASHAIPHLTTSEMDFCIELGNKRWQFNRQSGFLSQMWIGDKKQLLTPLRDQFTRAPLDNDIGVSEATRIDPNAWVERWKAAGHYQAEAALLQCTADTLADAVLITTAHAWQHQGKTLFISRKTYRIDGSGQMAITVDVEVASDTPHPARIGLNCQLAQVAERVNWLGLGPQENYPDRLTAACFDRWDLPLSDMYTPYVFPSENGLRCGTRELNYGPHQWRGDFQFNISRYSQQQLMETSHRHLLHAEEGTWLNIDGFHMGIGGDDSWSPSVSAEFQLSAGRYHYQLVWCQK

## O=C(NNC(=O)c1ccc2ccccc2c1O)NC1CCCCC1
[1]
  IC50: > 94.1 µM (inactive)

## C=CC1=C(C)c2cc3[nH]c(cc4nc(cc5[nH]c(cc1n2)c(C)c5CCC(=O)O)C(CCC(=O)O)=C4C)c(C)c3C=C [PROTOPORPHYRIN DISODIUM]
[2]
  IC50: > 40 µM (inactive)
[3]
  IC50: 19.6 µM (inactive)

## O=C(NCCc1cccs1)c1ccc(Cl)cc1
[4]
  EC50: 1.19 µM (active)
[5]
  IC50: 3.48 µM (active)
[6]
  IC50: > 29.9 µM (inactive)
[7]
  EC50: > 29.9 µM (inactive)

## Cc1cc(NC2=CC(=O)C(=O)c3ccccc32)no1
[8]
  IC50: 3.52 µM (active)

## CN(C)c1ccc(/C=C/C#N)cc1
[9]
  IC50: > 100 µM (active)

## CC(C)=CCOc1ccc(/C=C/C(=O)c2ccc(OCC=C(C)C)cc2OCC(=O)O)cc1 [SOFALCONE]
[10]
  IC50: 5.36 µM (inactive)
[11]
  IC50: 5.53 µM (inactive)
[12]
  IC50: 5.4 µM (inactive)
[13]
  IC50: 2.92 µM (active)
[14]
  IC50: 1.55 µM (active)
[15]
  IC50: > 10 µM (inactive)
[16]
  IC50: 7.44 µM (inactive)
[17]
  IC50: 3.04 µM (active)
[18]
  IC50: > 6.67 µM (inactive)
[19]
  IC50: > 10 µM (inactive)

## OCCNc1nc(Nc2ccccc2)nc2ccccc12
[4]
  EC50: 0.0634 µM (active)
[5]
  IC50: 0.2 µM (active)
[6]
  IC50: > 29.9 µM (inactive)
[7]
  EC50: > 29.9 µM (inactive)

## O=C(Cc1ccccc1)N/N=C/c1cc(Br)cc(Br)c1O
[1]
  IC50: > 94.1 µM (inactive)

## CN(C)c1cccc2c1c(NS(=O)(=O)c1cn(C)cn1)nn2C
[8]
  IC50: 106 µM (inactive)
[20]
  EC50: 32.5 µM (active)
[21]
  EC50: 89.8 µM (active)

## COc1ccc(C(=O)NC(=S)Nc2cccc(Cl)c2N2CCOCC2)cc1[N+](=O)[O-]
[22]
  AC50: 28.8 µM (active)
[22]; Homo sapiens
  AC50: > 52 µM (inactive)
[23]
  EC50: > 40 µM (inactive)
[24]
  IC50: > 40 µM (not active)

## Nc1nc2c(-c3ccc(Br)cc3)nnn2c2ccccc12
[25]
  EC50: > 67.6 µM (inactive)
[26]
  EC50: > 67.6 µM (inactive)

## O=P1(O)C=C(c2ccccc2)OC(c2ccccc2)=C1
[25]
  EC50: > 67.5 µM (inactive)
[26]
  EC50: > 67.5 µM (inactive)

## Cc1ccc(C(=O)NC2CCCCCCC2)c(Cl)c1
[27]
  AC50: 25.8 µM (active)
[28]
  AC50: 5.7 µM (active)
[29]
  AC50: 25.6 µM (active)
[30]
  AC50: 8.04 µM (active)

## Cn1nnc(NC(=O)c2cccc(F)c2)n1
[9]
  IC50: > 100 µM (active)

## COc1ccc(-c2nc3ccccc3s2)cc1
[27]
  AC50: 42.9 µM (active)
[28]
  AC50: 2.75 µM (active)
[31]
  AC50: > 100 µM (inactive)
[29]
  AC50: > 52 µM (inactive)
[30]
  AC50: 2.17 µM (active)
[32]
  AC50: > 52 µM (inactive)
